Assay results taken from patent US8088828B2, “Treating benign prostate hyperplasia with SARMS” (priority 2002, dated 2012).

Legend:
[1] = test system: male Sprague-Dawley rats (intact, hemi-orchidectomized, castrated); experiment: Plasma testosterone, FSH, LH and osteocalcin in rats of varying hormonal status; format: in vivo, rat; conditions: for Plasma FSH levels / Plasma LH levels / Plasma osteocalcin levels / Plasma testosterone levels: 0.5 mg/day osmotic pump, 14 days
Description: (§1) Methods: Compound VI was synthesized and characterized in the laboratory of Dr. Duane Miller at the University of Tennessee, Memphis, Tenn. Male Sprague-Dawley rats were purchased from Harlan Biosciences (Indianapolis, Ind.). The animals were maintained on a 12-h cycle of light and dark with food and water available ad libitum. All animal studies were reviewed and approved by the Animal Care and Use Committee of The Ohio State University, and conformed to the Principles of Laboratory Animal Care. Immature male Sprague-Dawley rats weighing […] were randomly distributed into 9 groups of 5 animals. One day before the initiation of drug treatment, groups 4 through 6 and groups 7 through 9 received unilateral or bilateral orchidectomy, respectively, via a midline scrotal incision. […] All drugs given to animals were freshly prepared as solutions in polyethylene glycol 300 (PEG 300). Groups 4 and 7 received treatment with vehicle alone (i.e., PEG 300). Animals in groups 3, 6, and 9 received testosterone propionate (TP, 0.5 mg/day) via implantation of subdermal osmotic pumps (Model 2002, Durect Corporation, Palo Alto, Calif.). Animals in groups 2, 5, and 8 received Compound VI (0.5 mg/day) via implantation of subdermal osmotic pumps. After 14 days of drug treatment, rats were weighed, anesthetized, and sacrificed. Blood samples were collected by venipuncture of the abdominal aorta. Plasma samples were analyzed for testosterone, FSH, LH and osteocalcin. Testosterone concentrations were measured by AniLytics Inc. (Gaithersburg, Md.). FSH and LH levels were measured by the National Hormone and Peptide Program (Dr. A F Parlow, UCLA, CA). Plasma osteocalcin levels were determined using a commercially available rat osteocalcin EIA kit from Biomedical Technologies Inc. (Stoughton, Mass.). The ventral prostates, seminal vesicles, and levator ani muscle were removed and weighed. Osmotic pumps were also removed from animals to check for correct pump operation. The weights of all organs were normalized to body weight, and analyzed for any statistically significant differences between groups using single-factor ANOVA with the alpha value set a priori at p<0.05. The weights of prostates and seminal vesicles were used as indices for evaluation of androgenic activity, and the levator ani muscle weight was used to evaluate the anabolic activity. Statistical analyses of parameters from complete blood count or serum chemical profiling, wherever applicable, were performed by single-factor ANOVA with the alpha value set a priori at p<0.05.

[2] = test system: male Sprague-Dawley rats (intact, hemi-orchidectomized, castrated); experiment: Prostate, seminal vesicle and levator ani muscle weights in rats of varying hormonal status; format: in vivo, rat; conditions: 0.5 mg/day, 14 days
Description: as §1

[3] = molecular target: T1, human 5α-reductase type 2 (Homo sapiens, UniProt P31213); format: cell-based
T1 construct: expressed in transfected cells; host or cells: COS1 cells; expression vectors obtained from Dr. David W. Russell
T1 sequence (P31213 1-254): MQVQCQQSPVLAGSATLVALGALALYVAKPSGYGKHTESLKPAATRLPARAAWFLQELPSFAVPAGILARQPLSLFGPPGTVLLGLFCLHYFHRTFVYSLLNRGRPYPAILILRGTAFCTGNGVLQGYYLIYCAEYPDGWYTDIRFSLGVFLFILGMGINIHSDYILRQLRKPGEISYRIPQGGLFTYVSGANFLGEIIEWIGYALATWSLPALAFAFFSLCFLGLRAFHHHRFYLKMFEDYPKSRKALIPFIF
Procedure: (§2) Methods: COS1 (American Type Culture Collection, Manassas, Va.) cells were plated in twelve-well plates at a density of 60,000 cells/well and transiently transfected with expression vectors for human 5•-reductase (obtained from Dr. David W. Russell, Southwestern Medical Center, Dallas, Tex.). LipofectAMINE PLUS™ Reagent (Invitrogen, Carlsbad, Calif.) was used for transfection. pCMV•SPORT-•gal plasmid (Invitrogen, Carlsbad, Calif.) was co-transfected to monitor transfection efficiency. Forty-eight hours after transfection, testosterone (4 μM) and/or Compound VI (2 or 200 μM) were added to the medium and incubated at 37° C. Aliquots of the culture medium were removed after 2 hours and the reaction stopped by addition of ice-cold acetonitrile (1:1, vol:vol). Testosterone and Compound VI concentrations in the incubate were determined by HPLC using a reversed-phase column (μBondaPak C18, 3.9×300 mm, Waters Corporation, Milford, Mass.) and a mobile phase of 38% acetonitrile in deionized water at a flow rate of 1.5 ml/min. Analytes were detected by UV absorbance at 254 nm. Calibration curves were prepared using the peak areas to calculate the concentration of testosterone or Compound VI in the incubate at the completion of the reaction. Cells were lysed after the reaction and the cellular supernatant used to determine •-galactosidase activity and ensure equal transfection efficiency between wells.

[4] = molecular target: T2, human 5α-reductase type 1 (Homo sapiens, UniProt P18405); format: cell-based
T2 construct: expressed in transfected cells; host or cells: COS1 cells; expression vectors obtained from Dr. David W. Russell
T2 sequence (P18405 1-259): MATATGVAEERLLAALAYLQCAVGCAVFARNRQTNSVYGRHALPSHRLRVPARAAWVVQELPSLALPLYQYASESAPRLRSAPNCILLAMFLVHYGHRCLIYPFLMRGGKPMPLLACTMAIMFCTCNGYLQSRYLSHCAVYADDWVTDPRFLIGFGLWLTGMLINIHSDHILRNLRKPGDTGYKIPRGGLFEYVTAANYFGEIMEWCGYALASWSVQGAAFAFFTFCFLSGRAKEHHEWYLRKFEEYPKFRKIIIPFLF
Procedure: as §2

[5] = Compound VI 2 μM, 2-hour incubation
[6] = testosterone 4 μM, Compound VI 2 μM or 200 μM, 2 hours

`CC(=O)Nc1ccc(OC[C@](C)(O)C(=O)Nc2ccc([N+](=O)[O-])c(C(F)(F)F)c2)cc1` [Compound VI] was tested, and the “effect on plasma FSH and LH levels” value ([1]; all surgical groups, 0.5 mg/day) was “no effect”, the “Plasma FSH levels” value ([1]; castrated rats) was 69.6 ± 11.7 ‡ ng/ml and the “Plasma LH levels” value ([1]; castrated rats) was 8.644 ± 2.799 ‡ ng/ml. For the same compound, the Plasma osteocalcin levels ([1]; castrated rats) was 94.215 ± 12.568 ng/mL, the Plasma testosterone levels ([1]; castrated rats) was 0.066 ± 0.148 ‡ ng/ml and the “effect on plasma osteocalcin levels” value ([1]; hemi-orchidectomized and castrated animals, 0.5 mg/day) was “significant increase”. For the same compound, the “Plasma FSH levels” value ([1]; hemi-orchidectomized rats) was 15.2 ± 2.2 ng/mL, the “Plasma LH levels” value ([1]; hemi-orchidectomized rats) was 0.124 ± 0.115 ng/mL and the Plasma osteocalcin levels ([1]; hemi-orchidectomized rats) was 89.804 ± 15.517 ng/mL. The Plasma testosterone levels ([1]; hemi-orchidectomized rats) was 1.404 ± 0.810 ng/mL, the “Plasma FSH levels” value ([1]; intact rats) was 14.4 ± 1.7 ng/mL and the “Plasma LH levels” value ([1]; intact rats) was 0.026 ± 0.037 ng/mL. For the same compound, the Plasma osteocalcin levels ([1]; intact rats) was 55.584 ± 9.715 ng/mL, the Plasma testosterone levels ([1]; intact rats) was 1.830 ± 0.510 ng/mL and the “effect on plasma testosterone levels” value ([1]; intact, hemi-orchidectomized or castrated male rats, 0.5 mg/day) was “did not affect”. The “Levator ani muscle weight normalized to body weight” value ([2]; castrated rats) was 100.65 ± 10.86 % of intact control, the “Prostate weight normalized to body weight” value (“Prostate weight normalized” below) ([2]; castrated rats) was 32.55 ± 11.65 % of intact control and the “Seminal vesicle weight normalized to body weight” value (“Seminal vesicle weight normalized” below) ([2]; castrated rats) was 16.47 ± 5.21 % of intact control. The “Levator ani muscle weight normalized to body weight” value ([2]; hemi-orchidectomized rats) was 108.10 ± 8.92 % of intact control, the “Prostate weight normalized” value ([2]; hemi-orchidectomized rats) was 74.69 ± 8.44 % of intact control and the “Seminal vesicle weight normalized” value ([2]; hemi-orchidectomized rats) was 78.55 ± 13.58 % of intact control. For the same compound, the “size of the levator ani muscle” value ([2]; hemi-orchidectomized rats) was 108 % of that observed in untreated hemi-orchidectomized animals, the “size of the prostate” value ([2]; hemi-orchidectomized rats) was 75 % of that observed in untreated hemi-orchidectomized animals and the “size of the seminal vesicles” value ([2]; hemi-orchidectomized rats) was 79 % of that observed in untreated hemi-orchidectomized animals. The “Levator ani muscle weight normalized to body weight” value ([2]; intact rats) was 109.15 ± 14.68 % of intact control, the “Prostate weight normalized” value ([2]; intact rats) was 79 % of intact control and the “Seminal vesicle weight normalized” value ([2]; intact rats) was 90.54 ± 12.10 % of intact control. The “changes in the size of the seminal vesicles or levator ani muscle” value ([2]; intact rats) was “no statistically significant changes”, the “Prostate weight normalized” value ([2]; intact rats, listed as COMPOUND VI) was 79.41 ± 9.32 % of intact control and the adverse pharmacologic effects ([2]; rats) was “No adverse pharmacologic effects were observed”. The “type of inhibition of 5α-reductase type 2” value [3] was “competitive inhibitor”, the “metabolism of Compound VI by 5α-reductase type 2” value [3, 5] was “not metabolized” and the “decrease in testosterone concentration in the presence of Compound VI” value [3, 6] was “less than 10%”. For the same compound, the “type of inhibition of 5α-reductase type 1” value [4] was “competitive inhibitor”, the “metabolism of Compound VI by 5α-reductase type 1” value [4, 5] was “not metabolized” and the “decrease in testosterone concentration in the presence of Compound VI” value [4, 6] was “less than 10%”.
